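Each compound was tested at five concentrations against cells in 96-well plates for 48 hours. GI50: concentration for 50% inhibition of growth. TGI denotes the concentration required for complete inhibition of growth.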

Among the test systems are SK-MEL-28 melanoma; UACC-257 melanoma; BT-549 breast; NCI-H522 lung; SNB-19 CNS; MDA-MB-231 breast; 786-0 renal; HT29 colon; HOP-92 NSCLC; HCT-15 colon.
Common to all, as to assay: NCI tumour cell line growth inhibition, 48 h

Take `COc1cc(CSc2nc3ccc(C)cc3c(=O)n2-c2ccccc2)cc(OC)c1OC`: the GI50 with SK-MEL-28 melanoma was 2.8 µM; with UACC-257 melanoma, 19.4 µM; in the assay with BT-549 breast it was 5.28 µM; with NCI-H522 lung it was 1.44 µM; in the assay on SNB-19 CNS it was 13.8 µM; with MDA-MB-231 breast, 2.92 µM. Moreover, the GI50 in the assay on 786-0 renal was 6.56 µM; in the assay on HT29 colon, 0.759 µM; with HOP-92 NSCLC, 1.03 µM; in the assay on HCT-15 colon, 0.577 µM. Moreover, the TGI with SK-MEL-28 melanoma was greater than 100 µM; in the assay with UACC-257 melanoma, greater than 100 µM; in the assay with BT-549 breast it was greater than 100 µM; in the assay with NCI-H522 lung, greater than 25.3 µM; in the assay on SNB-19 CNS it was greater than 100 µM; in the assay with MDA-MB-231 breast it was greater than 100 µM. Also, the TGI was greater than 100 µM with 786-0 renal, greater than 100 µM in the assay on HT29 colon, 8.74 µM with HOP-92 NSCLC and greater than 100 µM with HCT-15 colon.
For the compound `Cc1nn2c(/C=C3\C(=O)Nc4ccc(Cl)cc43)c(C)nc2s1`, the GI50 is 27.5 µM in the assay on SK-MEL-28 melanoma; greater than 100 µM in the assay with UACC-257 melanoma; 63.2 µM in the assay with BT-549 breast; 6 µM in the assay with NCI-H522 lung; 26.9 µM in the assay with SNB-19 CNS; greater than 100 µM in the assay with MDA-MB-231 breast. Further, the GI50 in the assay with 786-0 renal is 33.7 µM; in the assay on HT29 colon it was 5.16 µM; in the assay on HOP-92 NSCLC, greater than 100 µM; in the assay with HCT-15 colon, 13.9 µM. For the same compound, the TGI in the assay on SK-MEL-28 melanoma is greater than 100 µM; with UACC-257 melanoma it was greater than 100 µM; in the assay on BT-549 breast it was greater than 100 µM; in the assay on NCI-H522 lung, 39 µM; in the assay on SNB-19 CNS it was greater than 100 µM; in the assay with MDA-MB-231 breast, greater than 100 µM. Further, the TGI in the assay on 786-0 renal, in the assay with HT29 colon, with HOP-92 NSCLC and in the assay with HCT-15 colon was greater than 100 µM each time.
Take `C=C1CCC2C3(C)COC(c4ccc(N(C)C)cc4)OC3CCC2(C)C1C/C=C1/C(=O)OCC1O` (stereo not given): the GI50 in the assay on SK-MEL-28 melanoma is 2.34 µM; in the assay with UACC-257 melanoma, 13.1 µM; in the assay with BT-549 breast, 2.95 µM; in the assay on NCI-H522 lung, 3.22 µM; in the assay with SNB-19 CNS, 16.4 µM; in the assay with MDA-MB-231 breast, 7.19 µM. For the same compound, the GI50 in the assay with 786-0 renal is 10.5 µM; with HT29 colon it was 2.43 µM; in the assay with HOP-92 NSCLC it was 6.4 µM; with HCT-15 colon, 1.91 µM. In addition, the TGI came to 5.4 µM in the assay with SK-MEL-28 melanoma; 26.8 µM with UACC-257 melanoma; 11.1 µM in the assay with BT-549 breast; 14 µM in the assay with NCI-H522 lung; 32.3 µM in the assay with SNB-19 CNS; 20.8 µM in the assay with MDA-MB-231 breast. Besides, the TGI in the assay with 786-0 renal is 25.3 µM; in the assay with HT29 colon it was 6.19 µM; in the assay with HOP-92 NSCLC, 21.7 µM; in the assay on HCT-15 colon, 6 µM.
Regarding `COc1cnc2c(c1)C(=O)c1c-2n(CCCn2ccnc2)c(=O)c2cc(F)ccc12`, the GI50 is 0.191 µM in the assay with SK-MEL-28 melanoma; 0.102 µM in the assay on UACC-257 melanoma; 0.0688 µM in the assay with BT-549 breast; less than 0.01 µM in the assay with NCI-H522 lung; less than 0.01 µM in the assay with SNB-19 CNS; 0.35 µM with MDA-MB-231 breast. Further, the GI50 is 0.0131 µM with 786-0 renal, 0.013 µM with HT29 colon, 0.154 µM in the assay on HOP-92 NSCLC and 0.155 µM with HCT-15 colon. For the same compound, the TGI was determined as 1.3 µM with SK-MEL-28 melanoma; 0.493 µM with UACC-257 melanoma; 2.86 µM in the assay on BT-549 breast; 0.169 µM in the assay with NCI-H522 lung; 11.4 µM in the assay with SNB-19 CNS; 2.17 µM in the assay with MDA-MB-231 breast. Also, the TGI was 0.0563 µM with 786-0 renal, 0.226 µM in the assay on HT29 colon, 3.11 µM in the assay with HOP-92 NSCLC and 1.56 µM with HCT-15 colon.
With `O=[N+]([O-])O.[Cu+2].[NH-]CC[NH-].[NH-]CC[NH-]`, the GI50 in the assay on SK-MEL-28 melanoma, in the assay with UACC-257 melanoma, with BT-549 breast, in the assay with NCI-H522 lung, with SNB-19 CNS and in the assay with MDA-MB-231 breast was greater than 10 µM each time. Moreover, the GI50 in the assay with 786-0 renal, in the assay with HT29 colon, in the assay with HOP-92 NSCLC and in the assay with HCT-15 colon was greater than 10 µM throughout. The TGI in the assay on SK-MEL-28 melanoma, in the assay on UACC-257 melanoma, in the assay on BT-549 breast, in the assay on NCI-H522 lung, with SNB-19 CNS and with MDA-MB-231 breast was greater than 10 µM in each case. Further, the TGI in the assay with 786-0 renal, in the assay with HT29 colon, in the assay with HOP-92 NSCLC and with HCT-15 colon was greater than 10 µM in each case.
As for `COc1cc([C@@H]2OC[C@@H]3C(c4cc(OC)c5c(c4)OCO5)OC[C@@H]32)cc(OC)c1OC` (stereo not given in full), the TGI in the assay with SK-MEL-28 melanoma, with UACC-257 melanoma, in the assay on BT-549 breast, with NCI-H522 lung, in the assay with SNB-19 CNS and in the assay on MDA-MB-231 breast was greater than 100 µM in each case. Besides, the TGI in the assay on 786-0 renal, with HT29 colon, in the assay on HOP-92 NSCLC and in the assay on HCT-15 colon was greater than 100 µM each time.
In the case of `C=C(C)C(=O)O[C@H]1CC(=C)[C@@H]2C[C@H](O)[C@](O)(CCl)[C@@H]2[C@H]2OC(=O)C(=C)[C@@H]21`, the GI50 was 2.02 µM with SK-MEL-28 melanoma; 3.65 µM in the assay with UACC-257 melanoma; 1.84 µM in the assay on BT-549 breast; 1.91 µM in the assay with NCI-H522 lung; 16.6 µM in the assay with SNB-19 CNS; 4.28 µM with MDA-MB-231 breast. Moreover, the GI50 was 1.93 µM in the assay on 786-0 renal, 2.89 µM in the assay on HT29 colon, 2.69 µM in the assay on HOP-92 NSCLC and 1.89 µM in the assay with HCT-15 colon. Besides, the TGI is 3.9 µM with SK-MEL-28 melanoma; 13.5 µM in the assay with UACC-257 melanoma; 3.45 µM with BT-549 breast; 4 µM in the assay with NCI-H522 lung; 32.2 µM in the assay on SNB-19 CNS; 13.6 µM in the assay on MDA-MB-231 breast. Besides, the TGI in the assay with 786-0 renal came out at 3.88 µM; with HT29 colon, 7.42 µM; with HOP-92 NSCLC, 6.33 µM; in the assay on HCT-15 colon, 4.42 µM.

These data come from PubChem BioAssay (NCI).
